Read-outs that look alike come from different tables or passages of the source.

A short description of data set [1]: log P by HPLC on reversed-phase column (C18), EEC Directive 79/831 Annex V.A8. An excerpt:
Called log P (HCOOH) in the table.
Called log P (neutral) in the table.

The subject of data set [2] is Phaedon cochleariae. Description: Phaedon cochleariae spray test. The data set is classed as in vivo. The note with it: for pest or weed control at 500 g/ha: Phaedon cochleariae, 168 h, read-out: efficacy in %. The procedure: Phaedon cochleariae-Spray Test
Solvent: 78.0 parts by weight of acetone
(§1) • 1.5 parts by weight of dimethylformamide Emulsifier: alkylaryl polyglycol ether
(§2) To produce a suitable preparation of active compound, 1 part by weight of active compound is dissolved using the stated parts by weight of solvent and made up with water containing an emulsifier concentration of 1000 ppm until the desired concentration is attained. To produce further test concentrations, the preparation is diluted with emulsifier-containing water.
After 7 days, the efficacy in % is determined. 100% means that all the beetle larvae have been killed; 0% means that no beetle larvae have been killed.

Data set [3] deals with Myzus persicae. As to the kind of experiment: Myzus persicae spray test (Chinese cabbage leaf discs). In kind it is in vivo. The following applies: for pest or weed control at 500 g/ha: Myzus persicae, foliar, 144 h, read-out: efficacy in %. The procedure: Myzus persicae Spray Test
Solvent: 78 parts by weight of acetone
as §1, §2
Discs of Chinese cabbage leaves (Brassica pekinensis) infested by all stages of the green peach aphid (Myzus persicae) are sprayed with an active compound preparation of the desired concentration.
After 6 days, the efficacy in % is determined. 100% means that all the aphids have been killed; 0% means that no aphids have been killed.

Setting [4] is: 500 g/ha, after 7 days, beetle larvae killed.
Setting [5] is: 500 g/ha, after 6 days, aphids killed.
[6] abbreviates: reversed-phase HPLC column (C18), pH 2.7, logP-acidic, LC-MS acidic range, pH 2.7 (HCOOH), C18, 55° C.
Setting [7] is: reversed-phase HPLC column (C18), pH 7.8, log P (neutral), preparation examples, neutral range, pH 7.8.
Where [8] appears, read: reversed-phase HPLC column (C18), pH 7.8, logP-neutral, LC-MS neutral range, pH 7.8, C18, 55° C.
Setting [9] is: LC-MS acidic range, pH 2.7 (HCOOH), C18, 55° C.

Turning to `CCS(=O)(=O)c1ccc(NC(=O)c2ccccc2)nc1-c1nc2cc(C(F)(F)F)ncc2n1C` [Example 20], the logP-acidic in data set [1] (pH 2.7) was determined as 2.98. For the same compound, the figures for the efficacy in % in data set [2] (setting [4]) and in data set [3] (setting [5]) were 83% and 90%, respectively.

The compound `CCS(=O)(=O)c1ccc(NC(=O)CS(C)(=O)=O)nc1-c1nc2cc(C(F)(F)F)ncc2n1C` [Example 72] displayed a logP-acidic in data set [1] (pH 2.7) of 1.87. In addition, the logP-neutral in data set [1] (pH 7.8) worked out at 1.92. Besides, the efficacy in % in data set [2] (setting [4]) and in data set [3] (setting [5]) was 100% each time.

The term chromatographic logP denotes a lipophilicity value derived from retention on a column. Turning to `CCS(=O)(=O)c1ccc(/S(C)=N/C#N)nc1-c1nc2cc(C(F)(F)F)ncc2n1C` (stereo not shown) [Example 43, [{5-(Ethylsulphonyl)-6-[3-methyl-6-(trifluoromethyl)-3H-imidazo[4,5-c]pyridin-2-yl]pyridin-2-yl}(methyl)-lambda4-sulphanylidene]cyanamide], the chromatographic logP in data set [1] (setting [6]), in data set [1] (setting [7]) and in data set [1] (setting [8]) was 1.75 each time. The pest or weed control at 500 g/ha worked out at 100% in data set [2] (setting [4]) and 90% in data set [3] (setting [5]).

As to `CCS(=O)(=O)c1ccc(N(C)C(C)=O)nc1-c1nc2cc(C(F)(F)F)ncc2n1C` [Example 69], the logP-acidic in data set [1] (setting [9]) came to 2.11. The compound further displayed a logP-neutral in data set [1] (LC-MS neutral range, pH 7.8, C18, 55° C.) of 2.10. Moreover, the efficacy in % in data set [2] (setting [4]) is recorded as 100%; in data set [3] (setting [5]) it was 90%.

`CCC(=O)Nc1ccc([S+]([O-])CC)c(-c2nc3cc(C(F)(F)F)ncc3n2C)n1` (stereo not shown) [Example 2] returned a logP-acidic in data set [1] (pH 2.7) of 2.33. The logP-neutral in data set [1] (pH 7.8) is on record as 2.25. The figures for the efficacy in % in data set [2] (setting [4]) and in data set [3] (setting [5]) were 100% and 90%, respectively.

In the case of `CCS(=O)(=O)c1ccc(NC(C)=S)nc1-c1nc2cc(C(F)(F)F)ncc2n1C` [Example 63, N-[5-Ethylsulphonyl-6-[3-methyl-6-(trifluoromethyl)imidazo[4,5-c]pyridin-2-yl]-2-pyridyl]thioacetamide], the values for the chromatographic logP in data set [1] (pH 2.7) and in data set [1] (pH 7.8) were 2.6 and 2.41, respectively. The pest or weed control at 500 g/ha came out at 100% in data set [2] and 90% in data set [3].

Regarding `CCS(=O)(=O)c1ccc(NN)nc1-c1nc2cc(C(F)(F)F)ncc2n1C` [Example 55], in data set [1] (setting [9]), the logP-acidic turned out to be 1.39. Also, the efficacy in % in data set [2] (setting [4]) and in data set [3] (setting [5]) was 100% in each case.

In data set [1] (pH 2.7), `CCS(=O)(=O)c1ccc(NC(=O)CSC)nc1-c1nc2cc(C(F)(F)F)ncc2n1C` [Example 53] showed a logP-acidic of 2.51. For the same compound, in data set [1] (pH 7.8), the logP-neutral stood at 2.38. Further, the efficacy in % in data set [2] (setting [4]) was 100%; in data set [3] (setting [5]) it was 90%.

Turning to `CCS(=O)(=O)c1ccc([S+](C)[O-])nc1-c1nc2cc(C(F)(F)F)ncc2n1C` (stereo not shown) [Example 44], in data set [3] (setting [5]), the efficacy in % is recorded as 90%.

On to `CCS(=O)(=O)c1ccc(NS(C)(=O)=O)nc1-c1nc2cc(C(F)(F)F)ncc2n1C` [Example 26, N-{5-(Ethylsulphonyl)-6-[3-methyl-6-(trifluoromethyl)-3H-imidazo[4,5-c]pyridin-2-yl]pyridin-2-yl}methanesulphonamide], for which the chromatographic logP in data set [1] (setting [6]) came to 1.92; in data set [1] (setting [7]), 0.85; in data set [1] (setting [8]), 0.85. Moreover, the pest or weed control at 500 g/ha in data set [2] (setting [4]) was found to be 100%.

With `CCS(=O)(=O)c1ccc(S(=O)(=O)CC)c(-c2nc3cc(C(F)(F)F)ncc3n2C)n1` [Example 15, 2-[3,6-Bis(ethylsulphonyl)pyridin-2-yl]-3-methyl-6-(trifluoromethyl)-3H-imidazo[4,5-c]pyridine], the chromatographic logP in data set [1] (setting [6]) turned out to be 2.31; in data set [1] (setting [7]), 2.27; in data set [1] (setting [8]) it was 2.28. Besides, in data set [2] (setting [4]), the pest or weed control at 500 g/ha was found to be 100%.

`CCS(=O)(=O)Nc1ccc(S(=O)(=O)CC)c(-c2nc3cc(C(F)(F)F)ncc3n2C)n1` [Example 59] displayed a logP-acidic in data set [1] (pH 2.7) of 2.08. Further, the logP-neutral in data set [1] (pH 7.8) worked out at 0.90. The same compound displayed an efficacy in % in data set [3] (100 g/ha, after 6 days, aphids killed) of 100%.

In data set [1] (pH 2.7), `CCCOc1ccc(S(=O)(=O)CC)c(-c2nc3cc(C(F)(F)F)ncc3n2C)n1` [Example 51] showed a logP-acidic of 3.37. In data set [1] (pH 7.8), this compound came in with a logP-neutral of 3.36. Also, the efficacy in % in data set [2] (setting [4]) turned out to be 100%.

(Values after patent publication US10654845B2, “2-(het)aryl-substituted fused bicyclic heterocycle derivatives as pesticides” (BAYER CROPSCIENCE AKTIENGESELLSCHAFT, priority 2015, dated 2020).)
